In EP1108710A1, “GUAIACOXYPROPANOLAMINES WITH ALPHA/BETA-ADRENERGIC BLOCKING ACTIVITY” (Cheng, Ing-Jun, priority 1998, dated 2000):
Like-named read-outs stand apart in the source and are kept apart here.

What was measured:
[1] = system: Wistar rat's isolated; reserpine pretreated right atrium beating rate and left atrium isometric contractions; assay: Direct effect (intrinsic sympathomimetic activity) on reserpine-pretreated isolated atria
Procedure: Pharmacol 311, pp. 205-218 and pp 237-248 (1980). Wistar rats of weight between 200 ∼ 300 gm were used. 18 ∼ 24 hours before the experiment, 5mg/kg of reserpine was injected via abdominal cavity to remove all endogenous catecholamines. Prior experiment, Wistar rats were sacrificed, the heart was immediately removed and placed in Kreb's solution aerated with air mixture and maintained at room temperature. The right and left atria were carefully separated.

[2] = system: guinea pig's isolated; reserpine pretreated tracheal; assay: Direct effect (tracheal relaxation, intrinsic sympathomimetic activity) on reserpine-pretreated isolated trachea, with and without ICI 118,551; conditions: cumulative administration 10^-10∼3x10^-6 M, reserpine pretreated
Procedure: Pharmacol 311, pp. 205-218 and pp.237-248 (1980). guinea pigs of weight between 350 ∼ 500 gm were used. 18 ∼ 24 hours before the experiment, 5mg/kg of reserpine was injected via abdominal cavity to remove all endogenous catecholamines. Prior experiment, guinea pigs were sacrificed, the tracheal was immediately removed and placed in Kreb's solution aerated with air mixture and maintained at room temperature of 22 ∼ 25°C. […] […] Then the tissue was repeatedly washed with Kreb's solution. After the tissue had been re-equilibrated for 60 minutes, ICI 118, 551 were administed. After treatment for 30 minutes, compound 1 of similar concentration was administered, and the intrinsic sympathomimetic activity of tracheal was observed.

β-adrenoreceptor (β1) = target: T1, β-adrenoreceptor (β1) (Rattus norvegicus, UniProt P18090); assay: β-adrenoceptor blocking action on isolated spontaneously beating right atrium (L-isoproterenol-induced heart rate increase, Schild plot); parameters: species or system Wistar rat; conditions: from the average pA2 difference between right atrium and tracheal
T1 construct: The right and left atria were then separated; from tissue; host or cells: isolated rat right and left atria
Procedure: The right and left atria were then separated. The spontaneously-beating right atria was clipped on both end by heart shaped clips, where one end was fixed at the bottom of 10ml of tissue bath made of physiological saline solution, and temperature maintained at 37°C. The other end of the atria was connected to a force transducer, and isometric contractions and beating rate of the right atria were recorded by COULBOURN AT-High-Speed VideoFigure. […] Cumulative administration interval was when the previous concentration reached its greatest effect, the next concentration would be immediately given.

normotensive rats = assay: Heart rate and blood pressure in living (anaesthetized) rat, intravenous injection; type: in vivo, Wistar rats; conditions: lmg/kg; via femoral vein, rats
Source text: Male Wistar rats, weighing 200 ∼ 300g were abdominal anaesthetized with pentobarbital sodium. Tracheal was cannulated to maintain normal respiration. Polyethylene tube was inserted into the left femoral vein to facilitate drug administration. A 3-way stopcock was used, with one end connected to a syringe for drug injection, while the other end was connected to the syringe filled with physiological saline. The latter was used to prevent residual drugs in the polyethylene tube after injection, which would affect experimental accuracy.
The right femoral artery was also inserted with polyethylene, and a 3-way stopcock was used tool, where one end was connected to heparin solution to prevent embolism. The other end was connected to a Disposable Diaphragm Dome, TA1019, and linked to a transducer. Through an amplifier, a recorder recorded the overall and average arterial pressure; heart rate to evaluate the effect of drug on blood pressure and heart rate.

[3] = system: Wistar rat's isolated thoracic aorta; assay: Isolated thoracic aorta contraction caused by 75mM KCl
Procedure: After sacrificing Wistar rat of weight between 300 - 500 gm, the thoracic aorta was immediately removed and placed in cold Kreb's solution. The fatty connecting tissue surrounding the vessel wall was removed and the thoracic aorta was cut into rings of length 5 mm. The two ends of each ring was pieced and fixed with "Z" shaped platinum wires. […] When the results had been recorded for at least 35 minutes, the aorta was repeatedly rinsed with normal Kreb's solution. […] 30 minutes later, 75mM KCl was added again to induce vasoconstriction.

[4] = 10^-8M, thoracic aorta contraction caused by 75mM KCl

T1 sequence (P18090 whole entry): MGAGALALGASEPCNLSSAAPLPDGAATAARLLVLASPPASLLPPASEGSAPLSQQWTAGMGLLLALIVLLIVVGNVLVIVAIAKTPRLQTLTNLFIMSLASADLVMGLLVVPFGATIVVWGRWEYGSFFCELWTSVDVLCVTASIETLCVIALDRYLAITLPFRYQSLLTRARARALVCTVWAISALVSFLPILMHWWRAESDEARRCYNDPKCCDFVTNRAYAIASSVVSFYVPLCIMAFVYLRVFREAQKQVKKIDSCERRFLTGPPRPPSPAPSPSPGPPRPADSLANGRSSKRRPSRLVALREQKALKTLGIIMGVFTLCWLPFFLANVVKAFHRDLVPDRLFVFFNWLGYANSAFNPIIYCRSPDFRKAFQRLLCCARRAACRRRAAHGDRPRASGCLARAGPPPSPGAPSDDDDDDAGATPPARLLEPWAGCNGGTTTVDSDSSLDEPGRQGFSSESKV

SMILES | Lowering of Blood Pressure (normotensive rats) | Reduction of Heart Rate (normotensive rats) | Aorta Relaxation [3, 4] | further results
CC(C)NCC(O)COc1ccc(CC(N)=O)cc1 (stereo not shown) [ATENOLOL] |  |  |  | atrial blocking effect ([1]; 3x10-4M): almost does not have atrial blocking effect
CC(C)NC[C@H](O)c1ccc(O)c(O)c1 [L-isoproterenol] |  |  |  | tracheal relaxation effect [2]: dose-dependant tracheal relaxation effect
CC(C)NCC(O)COc1cccc2ccccc12 (stereo not shown) [PROPRANOLOL] |  |  |  | tracheal relaxation effect [2]: did not produce any relaxation effect; direct effect on atrial tissue ([1]; 10^-4∼10^-3 M): could inactivate or unexcited the tissue; direct effect on right atrium beating rate and left atrium isometric contractions ([1]; cumulative administration, reserpine pretreated): could retard the beating rate and isometric contractions
COc1cc(C=O)ccc1OCC(O)CNC(C)(C)C (stereo not shown) [VANIDILOL, reference compound] |  |  |  | tracheal relaxation effect [2]: dose-dependant tracheal relaxation effect; selectivity ratio of β1 type adrenoceptor (effect on right atrium relative to tracheal) (β-adrenoreceptor (β1)): 0.98 X
COC(=O)C1=C(C)NC(C)=C(C(=O)OC)C1c1ccc(OCC(O)CNCCOc2ccccc2OC)c(OC)c1 (stereo not shown) [compound 2, 4-{{N-{4-[2-hydroxy-3-(2-methoxy-1-oxyethyl-aminobenzene)propoxy]-3-methoxy}phenyl}}-2,6-dimethyl-3,5-dicarbo-methoxy-1,4-dihydropyridine] | 75± 2 mm Hg | 35± 4 beats/min | 40± 4% | 
CCOC(=O)C1=C(C)NC(C)=C(C(=O)OCC)C1c1ccc(OCC(O)CNCCOc2ccccc2OC)c(OC)c1 (stereo not shown) [compound 3, 4-{{N-{4-[2-hydroxy-3-(2-methoxy-1-oxyethyl-aminobenzene)propoxy]-3-methoxy}phenyl}}-2,6-dimethyl-3,5-dicarboethoxy-1,4-dihydropyridine] | 78± 5 mm Hg | 37± 5 beats/min | 41± 2% | 
CCOC(=O)C1=C(C)NC(C)=C(C(=O)OCC)C1c1cc(Cl)ccc1OCC(O)CNC(C)(C)C (stereo not shown) [compound 4] | 76± 6 mm Hg | 33± 3 beats/min | 35± 5% | 
CCCCNCC(O)COc1ccc(Cl)cc1C1C(C(=O)OCC)=C(C)NC(C)=C1C(=O)OCC (stereo not shown) [compound 5] | 74± 4 mm Hg | 32± 4 beats/min | 33± 2% | 
CCOC(=O)C1=C(C)NC(C)=C(C(=O)OCC)C1c1cc(Cl)ccc1OCC(O)CNCCOc1ccccc1OC (stereo not shown) [compound 6] | 80± 3 mm Hg | 35± 5 beats/min |  | Aorta Relaxation [3]: 45± 4%
CCOC(=O)C1=C(C)NC(C)=C(C(=O)OCC)C1c1ccc(OCC(O)CNCCOc2ccccc2OC)c(Cl)c1 (stereo not shown) [compound 7, 4-{{N-{4-[2-hydroxy-3-(2-methoxy-1-oxyethylaminobenzene)propoxy]-3-choloro}phenyl}}-2,6-dimethyl-3,5-dicarbo-ethoxy-1,4-dihydropyridine] | 82± 6 mm Hg | 40± 2 beats/min | 45± 5% | 
CCOC(=O)C1=C(C)NC(C)=C(C(=O)OCC)C1c1cc([N+](=O)[O-])ccc1OCC(O)CNC(C)(C)C (stereo not shown) [compound 8] | 80± 3 mm Hg | 40± 4 beats/min | 43± 3% | 
CCOC(=O)C1=C(C)NC(C)=C(C(=O)OCC)C1c1cc([N+](=O)[O-])ccc1OCC(O)CNCCOc1ccccc1OC (stereo not shown) [compound 9] | 85± 6 mm Hg | 40± 5 beats/min | 47± 2% | 
